Measurements reported in patent publication US10472364B2 (Calithera Biosciences, Inc., priority 2016, dated 2019).

Each compound was assayed against endogenous, cell-bound CD73 on SK-MEL-28 cells (Homo sapiens (Human), UniProt P21589) (assay: Inhibition of endogenous, cell-bound CD73 enzyme activity in SK-MEL-28 cells (Malachite Green)). Details: 100 μM AMP, 30 minutes at room temperature.
endogenous, cell-bound CD73 on SK-MEL-28 cells, sequence (P21589 27-574): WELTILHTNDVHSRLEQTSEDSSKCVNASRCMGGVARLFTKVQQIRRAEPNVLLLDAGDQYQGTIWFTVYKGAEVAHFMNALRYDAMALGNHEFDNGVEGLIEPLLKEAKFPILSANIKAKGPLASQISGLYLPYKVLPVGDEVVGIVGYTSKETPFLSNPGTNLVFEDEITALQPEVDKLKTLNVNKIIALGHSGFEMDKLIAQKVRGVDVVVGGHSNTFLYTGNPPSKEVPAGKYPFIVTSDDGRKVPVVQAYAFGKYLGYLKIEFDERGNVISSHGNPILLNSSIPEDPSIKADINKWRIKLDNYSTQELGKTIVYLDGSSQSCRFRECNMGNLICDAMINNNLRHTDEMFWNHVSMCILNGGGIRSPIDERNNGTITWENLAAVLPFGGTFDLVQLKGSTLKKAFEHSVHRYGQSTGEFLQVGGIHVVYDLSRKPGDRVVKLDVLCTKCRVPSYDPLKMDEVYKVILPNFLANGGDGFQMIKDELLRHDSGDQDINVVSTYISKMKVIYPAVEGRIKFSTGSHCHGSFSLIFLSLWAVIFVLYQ
Assay type: cell-based
Procedure: The day before the experiment, 5000 cells were plated per well in a 96-well plate. Cells were washed twice with […] reaction buffer (20 mM HEPES, pH 7.4, 125 mM NaCl, 1 mM KCl, 2 mM MgCl2, 10 mM glucose) to remove residual inorganic phosphate. After washing, assays contained serial dilutions of test compounds and 100 μM of AMP in a total volume of 200 μL reaction buffer, with a final DMSO concentration≤0.5%. After 30 minutes at room temperature, supernatant was removed from the cells. […] The concentration of inorganic phosphate was determined using a phosphate standard curve to determine IC50.
Work on `Nc1nc(Cl)nc2c1ncn2[C@@H]1O[C@H](COC(Cc2ccc(-c3ccccc3)cc2)(C(=O)O)C(=O)O)[C@@H](O)[C@@H]1F` [compound 79, 2-([1,1′-biphenyl]-4-ylmethyl)-2-(((2R,3R,4S,5R)-5-(6-amino-2-chloro-9H-purin-9-yl)-4-fluoro-3-hydroxytetrahydro-furan-2-yl)methoxy)malonic acid] yielded an IC50 of 162 nM. `COC(=O)C(Cc1ccc(-c2ccccc2)cc1)(OC[C@H]1O[C@@H](n2cnc3c(N)nc(Cl)nc32)[C@@H](F)[C@@H]1O)C(=O)O` (single isomer, unassigned) [compound 81] gave an IC50 of 2110 nM. In the case of `Nc1nc(Cl)nc2c1ncn2[C@@H]1O[C@H](COC(Cc2ccccc2)(C(=O)O)C(=O)O)[C@@H](N)[C@H]1O` [compound 51, 2-(((2S,3S,4R,5R)-3-amino-5-(6-amino-2-chloro-9H-purin-9-yl)-4-hydroxytetrahydrofuran-2-yl)methoxy)-2-benzylmalonic acid], the IC50 is reported as 4340 nM. In the case of `Nc1nc(Cl)nc2c1ncn2[C@@H]1O[C@H](COC(Cc2csc(C(=O)O)c2)(C(=O)O)C(=O)O)[C@@H](O)[C@@H]1F` [compound 76, 2-(((2R,3R,4S,5R)-5-(6-amino-2-chloro-9H-purin-9-yl)-4-fluoro-3-hydroxytetrahydro-furan-2-yl)methoxy)-2-((5-carboxythiophen-3-yl)methyl)malonic acid], the IC50 is reported as 305 nM. Work on `Nc1nc(Cl)nc2c1ncn2[C@@H]1O[C@H](COC(Cc2cc(C(=O)O)no2)(C(=O)O)C(=O)O)[C@@H](O)[C@@H]1F` [compound 83, 2-(((2R,3R,4S,5R)-5-(6-amino-2-chloro-9H-purin-9-yl)-4-fluoro-3-hydroxytetrahydrofuran-2-yl)methoxy)-2-((3-carboxyisoxazol-5-yl)methyl)malonic acid] yielded an IC50 of 5200 nM. Compound `Nc1nc(Cl)nc2c1ncn2[C@@H]1O[C@H](COC(Cc2ccc(C(=O)O)s2)(C(=O)O)C(=O)O)[C@@H](O)[C@@H]1F` [compound 77, 2-(((2R,3R,4S,5R)-5-(6-amino-2-chloro-9H-purin-9-yl)-4-fluoro-3-hydroxytetrahydro-furan-2-yl)methoxy)-2-((5-carboxythiophen-2-yl)methyl)malonic acid] has an IC50 of 1330 nM. For `CS(=O)(=O)c1ccc(CC(OC[C@H]2O[C@@H](n3cnc4c(N)nc(Cl)nc43)[C@@H](F)[C@@H]2O)(C(=O)O)C(=O)O)cc1` [compound 21, 2-(((2R,3R,4S,5R)-5-(6-amino-2-chloro-9H-purin-9-yl)-4-fluoro-3-hydroxytetrahydrofuran-2-yl)methoxy)-2-(4-(methylsulfonyl)benzyl)malonic acid], the IC50 was 510 nM. Compound `Nc1nc(Cl)nc2c1ncn2[C@@H]1O[C@H](COC(Cc2cccc(OC(F)(F)F)c2)(C(=O)O)C(=O)O)[C@@H](O)[C@@H]1F` [compound 15, 2-(((2R,3R,4S,5R)-5-(6-amino-2-chloro-9H-purin-9-yl)-4-fluoro-3-hydroxytetrahydrofuran-2-yl)methoxy)-2-(3-(trifluoromethoxy)benzyl)malonic acid] has an IC50 of 1580 nM. In the case of `Nc1nc(Cl)nc2c1ncn2[C@@H]1O[C@H](COC(Cc2ccc(OC(F)(F)F)cc2)(C(=O)O)C(=O)O)[C@@H](O)[C@@H]1F` [compound 36], the IC50 is reported as 197 nM. In the case of `Nc1nc(Cl)nc2c1ncn2[C@@H]1O[C@H](COC(Cc2nnn[nH]2)(C(=O)O)C(=O)O)[C@@H](O)[C@@H]1F` [compound 50, 2-((1H-tetrazol-5-yl)methyl)-2-(((2R,3R,4S,5R)-5-(6-amino-2-chloro-9H-purin-9-yl)-4-fluoro-3-hydroxytetrahydrofuran-2-yl)methoxy)malonic acid], the IC50 is reported as 6370 nM. In the case of `Nc1nc(Cl)nc2c1ncn2[C@@H]1O[C@H](COC(Cc2ccc(C(=O)NCCC(=O)O)cc2)(C(=O)O)C(=O)O)[C@@H](O)[C@@H]1F` [compound 87, 2-(((2R,3R,4S,5R)-5-(6-amino-2-chloro-9H-purin-9-yl)-4-fluoro-3-hydroxytetrahydro-furan-2-yl)methoxy)-2-(4-((2-carboxy-ethyl)carbamoyl)benzyl)malonic acid], the IC50 is reported as 549 nM. Compound `Nc1nc(Cl)nc2c1ncn2[C@@H]1O[C@H](COC(Cc2ccc(CC(=O)O)cc2)(C(=O)O)C(=O)O)[C@@H](O)[C@@H]1F` [compound 78, 2-(((2R,3R,4S,5R)-5-(6-amino-2-chloro-9H-purin-9-yl)-4-fluoro-3-hydroxytetrahydrofuran-2-yl)methoxy)-2-(4-(carboxymethyl)benzyl)malonic acid] has an IC50 of 234 nM. In the case of `Nc1nc(Cl)nc2c1ncn2[C@@H]1O[C@H](COC(Cc2cn[nH]c2)(C(=O)O)C(=O)O)[C@@H](O)[C@@H]1F` [compound 64, 2-((1H-pyrazol-4-yl)methyl)-2-(((2R,3R,4S,5R)-5-(6-amino-2-chloro-9H-purin-9-yl)-4-fluoro-3-hydroxytetrahydrofuran-2-yl)methoxy)malonic acid], the IC50 is reported as 588 nM. With `Nc1nc(Cl)nc2c1ncn2[C@@H]1O[C@H](COC(Cc2ccc(S(N)(=O)=O)cc2)(C(=O)O)C(=O)O)[C@@H](O)[C@@H]1F` [compound 86, 2-(((2R,3R,4S,5R)-5-(6-amino-2-chloro-9H-purin-9-yl)-4-fluoro-3-hydroxytetrahydrofuran-2-yl)methoxy)-2-(4-sulfamoylbenzyl)malonic acid] the IC50 was 626 nM. Compound `Nc1nc(Cl)nc2c1ncn2[C@@H]1O[C@H](COC(Cc2ccc(C(=O)O)c(F)c2)(C(=O)O)C(=O)O)[C@@H](O)[C@@H]1F` [compound 58, 2-(((2R,3R,4S,5R)-5-(6-amino-2-chloro-9H-purin-9-yl)-4-fluoro-3-hydroxytetrahydro-furan-2-yl)methoxy)-2-(4-carboxy-3-fluorobenzyl)malonic acid] has an IC50 of 853 nM. Work on `Nc1nc(Cl)nc2c1ncn2[C@@H]1O[C@H](COC(Cc2cccc(C(F)(F)F)c2)(C(=O)O)C(=O)O)[C@@H](O)[C@@H]1F` [compound 16, 2-(((2R,3R,4S,5R)-5-(6-amino-2-chloro-9H-purin-9-yl)-4-fluoro-3-hydroxytetrahydrofuran-2-yl)methoxy)-2-(3-(trifluoromethyl)benzyl)malonic acid] yielded an IC50 of 1020 nM. With `CNC(=O)C(OC[C@H]1O[C@@H](n2cnc3c(N)nc(Cl)nc32)[C@@H](F)[C@@H]1O)P(=O)(O)O` (stereo partly drawn) [compound 29, (1-(((2R,3R,4S,5R)-5-(6-amino-2-chloro-9H-purin-9-yl)-4-fluoro-3-hydroxytetrahydrofuran-2-yl)methoxy)-2-(methylamino)-2-oxoethyl)phosphonic acid] the IC50 was 5720 nM. Compound `Nc1nc(Cl)nc2c1ncn2[C@@H]1O[C@H](COC(Cc2ccc(O)cc2)(C(=O)O)C(=O)O)[C@@H](O)[C@@H]1F` [compound 66, 2-(((2R,3R,4S,5R)-5-(6-amino-2-chloro-9H-purin-9-yl)-4-fluoro-3-hydroxytetrahydrofuran-2-yl)methoxy)-2-(4-hydroxybenzyl)malonic acid] has an IC50 of 426 nM. Compound `Nc1nc(Cl)nc2c1ncn2[C@@H]1O[C@H](COC(Cc2ccc3oc(C(=O)O)cc3c2)(C(=O)O)C(=O)O)[C@@H](O)[C@@H]1F` [compound 88, 2-(((2R,3R,4S,5R)-5-(6-amino-2-chloro-9H-purin-9-yl)-4-fluoro-3-hydroxytetrahydro-furan-2-yl)methoxy)-2-((2-carboxybenzofuran-5-yl)methyl)malonic acid] has an IC50 of 443 nM. Work on `Nc1nc(Cl)nc2c1ncn2[C@@H]1O[C@H](COC(Cc2ccc(OCC(=O)O)cc2)(C(=O)O)C(=O)O)[C@@H](O)[C@@H]1F` [compound 92, 2-(((2R,3R,4S,5R)-5-(6-amino-2-chloro-9H-purin-9-yl)-4-fluoro-3-hydroxytetrahydrofuran-2-yl)methoxy)-2-(4-(carboxymethoxy)benzyl)malonic acid] yielded an IC50 of 202 nM.
